{"source": "patent US20250186485A1", "about": "“HYDRATION COMPOSITIONS” (priority 2017, published 2025)", "key": {"[1]": {"tested_on": "patients with disabling intermittent claudication or rest pain of the lower extremities", "text": "(§1) Dehydration often occurs in elderly population. Incidence of peripheral artery disease in patients over 60 years of age ranges between 18 and 29%. It was hypothesized that dehydration aggravates symptoms of PAD. Patients with disabling claudication or rest pain resistant to standard medical therapy were instructed to drink between 2,500 to 3000 milliliters of water according to their body mass.\n(§2) Patients without a past history of Congestive Heart Failure or renal insufficiency were included in the following example without interrupting exercises they were performing or medication they were receiving. Ninety percent of the patients were receiving aspirin and 100% of them Statins and Cilostazol at least for 5 months before starting the protocol. (See Table 2 below.)\n(§3) All patients belonged to category IIb of Fontaine and grade 1 category 2 and 3 of Rutherford.\n(§4) Protocol: Complete physical examination and laboratory work were performed. Ankle-brachial pressures were recorded. • 1) Graphics of skin temperature were obtained in both feet using a Flir Thermal Camera (Flir Systems Inc.) in a room at 24 degrees Celsius. (See FIGS. 3 and 4) • 2) Time and distance to claudication using a treadmill at 3 miles per hour was recorded. • 3) Subjective classification of pain intensity from […] was documented. (0=no pain, 10=intense pain) • 4) Skin color-including the absence and/or reduction in abnormal variations in skin color, skin tone and skin elasticity.\n(§5) Duplex of the abdominal artery, iliac arteries and infra-inguinal vessels was performed in every patient. Patients were followed weekly and underwent regular blood tests. Patients were recommended to drink 3,000 milliliters of water a day; fluids like tea and milk were counted in addition to water. This recommendation was the part of the protocol and it was carefully controlled.\nStatistical analysis: software utilized: SPSS 20 Qualitative variables were expressed in percentages. Quantitative variables were analyzed with the test of Shapiro-Wilk. Continuous variables were expressed as median, 95% confidence intervals and interquartile intervals. Wilcoxon Signed Rank Test was also utilized P<0.05 was considered significant."}, "[2]": {"tested_on": "patients with disabling intermittent claudication or rest pain of the lower extremities", "text": "as §1, §2, §3, §4, §5", "remark": "listed apart in the source"}, "[3]": {"tested_on": "patient with right foot rest pain and disabling claudication", "details": "Case 2; for walking distance without pain: three liters of fluid a day", "text": "A patient came to the consult with right foot rest pain, pallor and coldness up to the knee. […] Rest pain started one week before the consult and their claudication became disabling one month before. The patient was drinking less than 700 milliliters a day of fluids. […] Before proceeding to amputation, proper hydration was achieved. […] Three liters of fluid a day was recommended and the patient was discharged."}, "[4]": {"tested_on": "patient with intermittent claudication of the lower extremities and abdominal angina", "details": "Case 1", "description": "A person complaining of 10 step intermittent claudication of the lower extremities, abdominal angina that produced a 15 Kg weight loss, and an abnormal renal function with a creatinine of 3.1 mg per deciliter.\nThe patient was having intermittent claudication for years but in the last four months it became disabling.\nOn physical exam patient had no palpable pulses.\nThe patient was admitted, stool cultures performed and patient was rehydrated with precaution considering their heart condition. […] After four days the patient was discharged and asked to drink 2.5 liters of fluids a day."}}, "note": "Where two headings read alike, the source gives them in different places."}
{"smiles": "O", "note": "[water]", "values": [{"measurement": "pain intensity (final) Median", "setting": "[1]; 0=no pain, 10=intense pain, CI 1 to 2.341, initial median 6 (6 to 8), p<0,0001", "value": 2}, {"measurement": "final Median dorsal temperature of the first right toe after treatment", "setting": "[1]; FIG. 5, median, 95% confidence interval 29.300 to 31.468, initial median 29.95 (28 to 31)", "value": 30.65}, {"measurement": "final Median plantar temperature of the first right toe after treatment", "setting": "[1]; FIG. 6, median, CI 28.464 to 30.302, initial median 28.50 (27.366 to 29.939), p:0.0347", "value": 29.25}, {"measurement": "Median temperature of the plantar aspect of the left foot after hydration", "setting": "[1]; after 6 weeks of hydration, before 28.40 (26.82-30), p: 0.030", "value": "29.20 (26.70-30.92) ° C."}, {"measurement": "Median temperature of the plantar aspect of the right foot after 6 weeks", "setting": "[1]; after 6 weeks of hydration, before 28.70 (27-31), p: 0.011", "value": "29 (27.70-31) ° C."}, {"measurement": "Median temperature of the dorsum of the left foot after 6 weeks", "setting": "[1]; after 6 weeks of hydration, before 29.40 (27.72-31.30), p: 0.009", "value": "30.20 (27.70-31.70) ° C."}, {"measurement": "Median temperature of the dorsum of the right foot after hydration", "setting": "[1]; after 6 weeks of hydration, before protocol 29.95 (27.60-31.15), p: 0.02", "value": "30.35 (28.12-31.60) ° C."}, {"measurement": "Decrease of pain sensation recorded, percentage of patients", "setting": "[1]; after treatment", "value": "91.7 % of patients"}, {"measurement": "Patients with improvement of pain sensation of more than 50%", "setting": "[1]; after treatment", "value": "80 % of the patients"}, {"measurement": "Median ankle/brachial index after 6 weeks of treatment", "setting": "[1]; initial median 0.6 (0.50 to 0.69), p<0,0001", "value": "0.75 (0.62 to 0.80)"}, {"measurement": "Final pain intensity sensation, patient 15", "setting": "[1]; single patient 15, final intake of water 3000 ml, initial 6", "value": 0}, {"measurement": "Distance to claudication (final), patient 15", "setting": "[1]; single patient 15, final intake of water 3000 ml, initial 300 mts", "value": 6000, "unit": "mts"}, {"measurement": "Final ankle/brachial index, patient 15", "setting": "[1]; single patient 15, final intake of water 3000 ml, initial index 0.77", "value": 0.83}, {"measurement": "distance to claudication, final Median", "setting": "[1]; treadmill 3 miles per hour, end of 6 weeks, CI 382.947 to 800, initial median 100 (50 to 200), p<0.0001", "value": 535}, {"measurement": "Time to claudication after hydration, Median", "setting": "[1]; treadmill, 95% CI 4.195 to 9.209, initial median 1.3 (0.7 to 2.500), p<0.0001", "value": 6.3, "unit": "min"}, {"measurement": "status related to lower extremity ischemia", "setting": "[2]; 35 patients in whom proper hydration was achieved", "value": "all of them improved"}, {"measurement": "ulcers in the toes and ankle", "setting": "[2]; anecdotal, drinking 3 liters of water a day", "value": "reversed the lesions"}, {"measurement": "Time and distance to claudication, cutaneous temperature, ankle-brachial pressure and subjective pain sensation", "setting": "[2]; patients who drank more than 2.5 liters of fluids a day (35 of the 36 patients)", "value": "improved significantly"}, {"measurement": "walking distance without pain", "setting": "[3]; after seven months", "value": "walked four kilometers without pain"}, {"measurement": "walking distance without pain", "setting": "[3]; after three months", "value": "walked three blocks without pain"}, {"measurement": "rest pain of the right foot", "setting": "[3]; two days after proper hydration was achieved", "value": "pain subsided"}, {"measurement": "walking distance without pain", "setting": "[4]; 14 months after last admission, 2.5 liters of fluids a day", "value": "more than 4 blocks"}, {"measurement": "walking distance without pain", "setting": "[4]; after rehydration in hospital, second day", "value": 50, "unit": "meters"}]}
